From patent publication US20120301866A1, “LIQUID FORMULATION HAVING DISSOLVED GASES USEFUL FOR PRESERVING BIOLOGICAL MATERIAL” (L'Air Liquide, Société Anonyme pour I'Etude et …, priority 2010, published 2012)
Entries after “also recorded” stand apart in the source; their conditions may differ.

Assays:
Type in all cases: in vivo
rat kidneys [1] = assay: Immunohistochemistry of transplanted rat kidneys (anti-active caspase-3, anti-CD10); settings: day 14 after transplantation; for active caspase-3 expression (immunohistochemistry): marker for apoptosis
Experimental: In order to evaluate the renal graft preservation properties of argon or other gases, rat kidneys were removed and stored in a gas-saturated liquid solution according to the present invention. After six hours of organ preservation at a temperature of 4° C. and at atmospheric pressure, the rat kidneys are transplanted and the survival time, renal function and reperfusion/ischemia injuries are studied by means of biochemical and histological analyses. Immunodetections were carried out on serial cryostat sections 5 μm thick, using certain specific antibodies, i.e. anti-active caspase-3 and anti-CD10. The kidneys of a normal rat are used as control. After having been rinsed, the sections are incubated for 30 minutes with biotinylated secondary antibodies and they are then visualized using avidin-biotin peroxidase.

rat kidneys [2] = assay: Histology of transplanted rat kidneys (hematoxylin-eosin-safran, optical microscopy); settings: day 14 after transplantation; kidney stored 6 h at 4 °C in gas-saturated solution
Experimental: (§1) In order to evaluate the renal graft preservation properties of argon or other gases, rat kidneys were removed and stored in a gas-saturated liquid solution according to the present invention.
(§2) After six hours of organ preservation at a temperature of 4° C. and at atmospheric pressure, the rat kidneys are transplanted and the survival time, renal function and reperfusion/ischemia injuries are studied by means of biochemical and histological analyses.
On day 14 after transplantation, the kidneys are removed, weighed and cut into blocks. The kidneys are then fixed with a buffered 4% formaldehyde infusion for 24 h and they are embedded in paraffin. Five-micrometer sections are obtained from the blocks and stained with hematoxylin-eosin-safran in order to examine them by optical microscopy.

rat kidneys [3] = assay: Rat kidney transplantation after cold storage in gas-saturated Celsior solution: renal function (creatinine clearance, urinary albumin); settings: for overall effect on the preservation of a renal graft: compared with the other experimental groups; for level of albumin in the urine (urinary albumin): kidney stored 6 h at 4 °C, atmospheric pressure, in gas-saturated Celsior, days 7 and 14 after transplantation
Experimental: In accordance with the present invention, argon gas was dissolved in a liquid organ preservation solution available on the market, i.e. the CELSIOR solution, the composition of which is given in table 1, in order to obtain a liquid formulation in accordance with the present invention.
For the purposes of comparison, other gases, i.e. xenon, air and nitrogen, were dissolved in the same type of liquid solution.
as §1, §2
On days 0 (pretransplantation), 7 and 14 (after transplantation), biochemical analyses, i.e. creatinine clearance and urinary albumin, are carried out in the manner described by M. Yin et al., in “Carolina rinse solution minimizes kidney injury and improves graft function and survival after prolonged cold ischemia.” Transplantation 2002; 73:1410-1420).
Creatinine clearance is a parameter that is used to evaluate renal function. A high clearance corresponds to good renal function, while the presence of albumin in the urine (urinary albumin) indicates renal damage since, normally, there is no albumin in the urine when the kidney is normal.

SMILES	active caspase-3 expression (immunohistochemistry) (rat kidneys [1])	histological observations of transverse kidney sections (rat kidneys [2])	CD10 expression (immunohistochemistry) (rat kidneys [1]; weak CD10 expression corresponds to a damaged kidney)	overall effect on the preservation of a renal graft (rat kidneys [3])	level of albumin in the urine (urinary albumin) (rat kidneys [3])
N#N [nitrogen, reference compound]	significant expression of active caspase-3	–	–	–	–
[Ar] [argon]	discrete and focal losses	the architectural integrity of the kidney is preserved without any obvious glomerular modification; also recorded: intact normal morphology as in the control group, with no modification nor any necrosis	discrete and focal losses of CD 10 expression	very positive and advantageous effects	much lower than the levels of albumin (urinary albumin) obtained with the other transplanted kidneys
[Xe] [xenon, reference compound]	the active caspase-3 expression has been lost because of the serious acute tubular necrosis	–	–	some good effects	an effect greater than that which was obtained with the controls, but which is less than that obtained with argon
